According to US12435062B2, “Amide compounds and uses thereof” (HUTCHISON MEDIPHARMA LIMITED, priority 2020, dated 2025):

How the values were obtained:
Ba/F3^BCR-FMS-11 cells = assay: Cell proliferation experiment (Ba/F3^BCR-FMS-11, cckit-8); type: cell-based, mouse; details: Ba/F3^BCR-FMS-11 cell proliferation
Method: Cell Proliferation Experiment
Ba/F3^BCR-FMS-11, mouse primary B lymphocytes stably expressing the BCR-FMS fusion gene. The cells were cultured in an RPMI 1640 medium containing 10% FBS.
(§1) 2. Reagents and instruments
• cckit-8 kit: Dojindo, 9 CK04; • Envision: Perkin Elmer; • Cell culture plate: Facol, 9353027. 3. Experimental steps
The BCR-FMS fusion gene was transfected into Ba/F3 cells, and the cell line Ba/F3^BCR-FMS-11 that stably expresses BCR-FMS and grows depending on CSF-1R was screened. Ba/F3^BCR-FMS-11 cell proliferation experiments is completed by using the Cell Counting kit cckit-8 in a 96-well plate. In a 96-well plate, 5000/well of Ba/F3^BCR-FMS-11 cells were inoculated at 100 μL/well. […] 10 μL of the compound dilutions with the above 8 concentrations were added to the culture cell wells. The culture was incubated in a 37° C. and 5% CO2 cell incubator for 72 hours. 10 μL of Cell Counting kit cckit-8 detection reagent was added to each well, and incubated at 37° C. and 5% CO2 in a cell incubator for another 1 h. The optical density absorption value at 450 nm of each well was detected by using Perkin Elmer Envision instrument.
wherein • Drug-treated well read-out: indicating the optical density signal of a cell well with the test compound treatment. • Cell well read-out: indicating the optical density signal of a cell well not treated with the test compound (only 0.5% DMSO). • Background read-out: indicating the optical density signal of a well with the cell medium. 5. Calculation of IC50: obtained by using XL-Fit 5.3 software. 6. Test results

[1] = target: CSF1R phosphorylation in THP-1 cells (Homo sapiens (Human), UniProt P07333); assay: Detection of CSF1R phosphorylation activity at cell level (THP-1, M-CSF stimulated, ELISA); type: cell-based; details: p-CSF1R ELISA, compound 60 min, 300 ng/mL M-CSF 1 min
Method: Detection of CSF1R Phosphorylation Activity at Cell Level
THP-1 (ATCC), human acute monocytic leukemia cells. The cells were cultured in an RPMI 1640 medium containing 10% FBS.
as §1
• Human phosphorylation-CSF1R ELISA kit: R&D, #DYC3268-2; • RPMI 1640 culture solution: GIBCO, 910491; • Human M-CSF recombinant cytokine: R&D, 9216-MC-500; • Cell lysis buffer: Cell Signal, 99803S; • 1×PBS buffer (1 L): 8.0 g of NaCl, 0.2 g of KCl, 3.58 g of Na2HPO4-12H2O, 0.24 g of KH2PO4 were dissolved in 1 L of dd H2O, and the pH was adjusted to 7.4; • Blocking solution: PBS buffer containing 1% BSA; • PBST washing liquid: PBS buffer containing 0.05% Tween-20; • Chromogenic substrate: R&D, #DY999; • 2N H2SO4; • Microwell plate reader: Labsystems Multiskan K3: Thermo; Envision: Perkin Elmer; • ELISA plate: Corning, #9018; • Cell culture plate: Facol, #353027. 3. Treatment of cells and preparation of lysis buffer
THP-1 cells were resuspended in RPMI-1640 culture solution containing 2% FBS, and the culture was added to a 96-well plate at a density of 5×10^4/well, 50 μL/well, and cultured in a cell incubator at 5% CO2 and 37° C. overnight; The test compound was diluted with a serum-free RPMI-1640 medium to 3, 1.1, 0.37, 0.12, 0.04, 0.014, 0.005 and 0.002 μM, and the concentration of DMSO was 5%. 5 μL of the diluted compound was added to the 50 μL cell culture system, the culture was cultured in a 5% CO2, 37° C. cell incubator for 60 min, 300 ng/mL of M-CSF was added to the cells, and the mixture was stimulated in the 37° C. cell incubator for 1 min, added 50 μL of cell lysis buffer, and stored in a refrigerator at −80° C.
100 μL/well of the p-CSF1R capture antibody diluted to 0.8 μg/mL with PBS was added to the ELISA plate, and the plate was coated on a shaker at room temperature overnight. The culture was washed with PBST, and then added blocking solution and incubated at room temperature for 2 h. The culture was washed with PBST, added 90 μL of cell lysis buffer, and incubated on a shaker at 25° C. for 2 h. The plate was washed with PBST three times, added 100 μL of anti-p-tyrosine-HRP detection antibody diluted with 0.1% PBS-BSA diluent, and incubated on a shaker at 25° C. for 2 h. The plate was washed with PBST washing liquid, added 100 μL of chromogenic substrate and incubated at room temperature for 10-20 min. The reaction was stopped by adding 50 μL of 2N H2SO4. The optical density signal (450/570 nm) of each well was detected in Labsystems Multiskan K3 or Envision.
wherein • Drug-treated well read-out: indicating the optical density signal of a cell well with the test compound treatment. • Background read-out: indicating the optical density signal of a well without cells but with cell lysis buffer. • Cell well read-out: indicating the optical density signal of a cell well not treated with the compound. 6. Calculation of IC50: obtained by using XL-Fit 5.3 software. 7. Test results

[2] = target: Recombinant human CSF1R kinase (Homo sapiens (Human), UniProt P07333); type: biochemical; details: Z-LYTE Tyr 1 peptide substrate
Recombinant human CSF1R kinase, sequence (P07333 20-972): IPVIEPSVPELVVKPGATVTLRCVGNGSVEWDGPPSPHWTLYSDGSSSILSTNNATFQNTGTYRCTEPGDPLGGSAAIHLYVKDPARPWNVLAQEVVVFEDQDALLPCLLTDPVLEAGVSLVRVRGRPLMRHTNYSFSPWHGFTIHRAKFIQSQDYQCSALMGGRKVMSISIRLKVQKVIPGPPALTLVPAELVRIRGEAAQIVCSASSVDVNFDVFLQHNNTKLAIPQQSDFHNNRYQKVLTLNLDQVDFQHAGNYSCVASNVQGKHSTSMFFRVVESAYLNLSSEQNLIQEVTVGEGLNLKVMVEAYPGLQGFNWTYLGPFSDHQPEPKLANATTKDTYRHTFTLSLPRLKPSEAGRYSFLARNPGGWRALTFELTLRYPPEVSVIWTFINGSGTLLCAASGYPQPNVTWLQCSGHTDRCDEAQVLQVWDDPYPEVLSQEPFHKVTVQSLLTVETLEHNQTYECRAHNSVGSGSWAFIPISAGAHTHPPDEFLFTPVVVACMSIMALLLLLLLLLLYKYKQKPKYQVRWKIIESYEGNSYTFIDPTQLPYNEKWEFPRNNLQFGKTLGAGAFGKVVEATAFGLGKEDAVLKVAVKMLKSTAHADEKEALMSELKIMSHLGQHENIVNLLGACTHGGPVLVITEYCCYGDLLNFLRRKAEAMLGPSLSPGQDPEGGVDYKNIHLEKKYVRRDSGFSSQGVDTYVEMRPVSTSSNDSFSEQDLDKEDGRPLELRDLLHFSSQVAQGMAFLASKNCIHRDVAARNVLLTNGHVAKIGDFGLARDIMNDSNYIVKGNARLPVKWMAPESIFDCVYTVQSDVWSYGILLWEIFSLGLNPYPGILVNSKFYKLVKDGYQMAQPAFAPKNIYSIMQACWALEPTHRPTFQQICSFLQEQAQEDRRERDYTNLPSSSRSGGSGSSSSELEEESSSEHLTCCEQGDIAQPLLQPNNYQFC
Method: Measurement of CSF1R Kinase Activity at Molecular Level
1. Reagents and materials:
• Z-LYTE™ Tyr 1 peptide substrate: Invitrogen, PV3190; • 5× kinase buffer: Invitrogen, PV3189; • 10 mM ATP: Invitrogen, PV3227; • Development reagent B: Invitrogen, PV3295; • Development buffer: Invitrogen, P3127; • Stopping solution: Invitrogen, P3094; • Recombinant human CSF1R kinase: Invitrogen, PR4598A; • 384 well plate, black: Corning, 3575; Envision: Perkin Elmer. 2. Preparation of reaction solutions
1) 1.33× kinase buffer: 5× kinase buffer was diluted to a 1.33× kinase buffer with ddH2O.
2) Dilution of a 4× test compound: The test compound was diluted in gradient to 4-fold the reaction concentration and the concentration of DMSO was kept at 8%. The final concentration of the compound in reaction was: 1, 0.33, 0.11, 0.037, 0.012, 0.004, 0.0014, 0.00046 μM, and the final concentration of DMSO was 2%.
3) A mixture of kinase/peptide substrate: In 1.33× kinase buffer, the kinase and Z-LYTE™ Tyr 1 peptide substrate were diluted to 0.12 μg/mL and 4 μM, respectively, to prepare a mixture of kinase/peptide substrate. The mixture was mixed gently with a pipette.
4) A phosphorylated peptide substrate solution (PP solution): 0.4 μL of Z-LYTE™ Tyr1 phosphorylated peptide substrate was added to 99.6 μL of 1.33× kinase buffer.
5) ATP solution: 10 mM of ATP was diluted to 760 μM with 1.33× kinase buffer to prepare ATP solution.
6) Development solution: Development reagent B was diluted with Development buffer at a ratio of 1:200.
1) Kinase reaction (10 μL system)
2.5 μL of 4× test compound was added to each reaction well of the 384 plate, and the corresponding volume of 8% DMSO was added to the control well. The plate was placed on ice. 5 μL of a mixture of kinase/peptide substrate, 2.5 μL of kinase buffer and ATP solution were successively added to each well. Three control groups were set up: Group C1 contains only kinase buffer, group C2 contains the mixture of kinase/peptide substrate, kinase buffer and ATP, and group C3 contains 5 μL of PP solution. After adding the reaction components, the 384-well plate was sealed and incubated at 25-30° C. for 1 h in dark.
5 μL of Development solution was added to each well, sealed and incubated at 25-30° C. for another 1 h in dark.
3) Reaction stopping and plate reading
5 μL of stopping solution was added to each well. The Coumarin value (excitation at 400 nm, emission at 445 nm) and Fluorescein value (excitation at 400 nm, emission at 520 nm) were measured, respectively.
ER (emission ratio): Coumarin emission read-out (445 nm)/Fluorescein emission read-out (520 nm); • C3 445 nm: 100% phosphorylated Coumarin emission read-out; • C3 520 nm: 100% phosphorylated Fluorescein emission read-out; • C1 445 nm: 0% phosphorylated Coumarin emission read-out; • C1 520 nm: 0% phosphorylated Fluorescein emission read-out. Inhibition rate % (IR)=[1−% phosphorylation ratetest sample/100% phosphorylation ratecontrol]×100%
% phosphorylation ratetest sample: phosphorylation rate of the test compound; • 100% phosphorylation ratecontrol: phosphorylation rate of C3 control group.
5. IC50 values: calculated by using software XL-Fit™ (version 5.3) supplied by ID Business Solutions (Guildford, UK), which is an additional software to Microsoft Excel.

CSF1R phosphorylation in THP-1 cells, sequence (P07333 20-972): as above

IC50 (Ba/F3^BCR-FMS-11 cells; Mus musculus, 72 h) [nM]	IC50 [1] [nM]	IC50 [2] [nM]	IC50 (Ba/F3^BCR-FMS-11 cells; 72 hours) [nM]	Structure (SMILES)
6	6	5	–	Cc1ncc(C(=O)Nc2ccc(Oc3ccnc(Nc4ccn(C)n4)c3)cn2)c(=O)n1C [Compound 42]
5	6	6	–	Cc1ncc(C(=O)Nc2ccc(Oc3ccnc(Nc4ccnn4C)c3)cn2)c(=O)n1C [Compound 43]
20	9	12	–	Cn1ccc(Nc2cc(Oc3ccc(NC(=O)c4cccn(C)c4=O)nc3)ccn2)n1 [Compound 46]
6	3	5	–	Cn1nccc1Nc1cc(Oc2ccc(NC(=O)c3cnc4n(c3=O)CCC4)nc2)ccn1 [Compound 47]
5	5	5	–	Cn1nccc1Nc1cc(Oc2ccc(NC(=O)c3cccn(C)c3=O)nc2)ccn1 [Compound 48]
8	5	9	–	Cc1ncc(C(=O)Nc2ccc(Oc3ccnc(Nc4cnn(C)c4)c3)cn2)c(=O)n1C [Compound 63]
8	10	5	–	Cc1ncc(C(=O)Nc2ccc(Oc3ccnc(Nc4ccccn4)c3)cn2)c(=O)n1C [Compound 65]
–	9	33	25	Cn1cc(Nc2cc(Oc3ccc(NC(=O)c4cccn(C)c4=O)nc3)ccn2)cn1 [Compound 67]
7	14	8	–	Cc1c(F)cc(C(=O)Nc2ccc(Oc3ccnc(Nc4cnn(C)c4)c3)cn2)c(=O)n1C [Compound 75]
4	18	5	–	Cc1c(F)cc(C(=O)Nc2ccc(Oc3ccnc(Nc4ccnn4C)c3)cn2)c(=O)n1C [Compound 76]
5	10	6	–	Cn1nccc1Nc1cc(Oc2ccc(NC(=O)c3cc(F)cn(C)c3=O)nc2)ccn1 [Compound 77]
11	11	15	–	Cn1cc(Nc2cc(Oc3ccc(NC(=O)c4cc(F)cn(C)c4=O)nc3)ccn2)cn1 [Compound 78]
5	3	4	–	Cn1cc(-c2cc(Oc3ccc(NC(=O)c4cc(F)cn(C)c4=O)nc3)ccn2)cn1 [Compound 80]

Continued, compound first:

Structure (SMILES)	IC50 (Ba/F3^BCR-FMS-11 cells; Mus musculus, 72 h) [nM]	IC50 [1] [nM]	IC50 [2] [nM]	IC50 (Ba/F3^BCR-FMS-11 cells; 72 hours) [nM]
CCn1cc(-c2cc(Oc3ccc(NC(=O)c4cnc(C)n(C)c4=O)nc3)ccn2)cn1 [Compound 38]	17	7	12	–
Cc1ncc(C(=O)Nc2ccc(Oc3ccnc(-c4cnn(C(C)C)c4)c3)cn2)c(=O)n1C [Compound 39]	63	12	33	–
Cc1ncc(C(=O)Nc2ccc(Oc3ccnc(-c4ccncc4)c3)cn2)c(=O)n1C [Compound 41]	52	19	27	–
Cn1ccc(Nc2cc(Oc3ccc(NC(=O)c4cnc5n(c4=O)CCC5)nc3)ccn2)n1 [Compound 44]	6	3	7	–
Cn1cc(Nc2cc(Oc3ccc(NC(=O)c4cnc5n(c4=O)CCC5)nc3)ccn2)cn1 [Compound 45]	9	3	9	–
Cc1ncc(C(=O)Nc2ccc(Oc3ccnc(-c4cnn(C(F)F)c4)c3)cn2)c(=O)n1C [Compound 49]	24	14	23	–
Cc1ncc(C(=O)Nc2ccc(Oc3ccnc(-c4ccc(F)cc4)c3)cn2)c(=O)n1C [Compound 50]	112	54	78	–
Cc1ncc(C(=O)Nc2ccc(Oc3ccnc(-c4ccccc4)c3)cn2)c(=O)n1C [Compound 51]	97	67	56	–
CCn1cccc(C(=O)Nc2ccc(Oc3ccnc(-c4cnn(C)c4)c3)cn2)c1=O [Compound 55]	5	7	3	–
CC(C)n1cncc(C(=O)Nc2ccc(Oc3ccnc(-c4cnn(C)c4)c3)cn2)c1=O [Compound 56]	8	21	4	–
CC(C)n1cc(Cl)cc(C(=O)Nc2ccc(Oc3ccnc(-c4cnn(C)c4)c3)cn2)c1=O [Compound 57]	12	43	24	–
Cn1cc(-c2cc(Oc3ccc(NC(=O)c4nccn(C)c4=O)nc3)ccn2)cn1 [Compound 58]	179	126	69	–
CC(C)n1nccc(C(=O)Nc2ccc(Oc3ccnc(-c4cnn(C)c4)c3)cn2)c1=O [Compound 60]	15	14	8	–
Cn1cc(-c2cc(Oc3ccc(NC(=O)c4cccn(C(F)F)c4=O)nc3)ccn2)cn1 [Compound 61]	87	75	45	–
Cc1ncc(-c2cc(Oc3ccc(NC(=O)c4cnc(C)n(C)c4=O)nc3)ccn2)s1 [Compound 62]	32	9	20	–
Cc1ncc(C(=O)Nc2ccc(Oc3ccnc(-c4ccc5nccn5c4)c3)cn2)c(=O)n1C [Compound 64]	40	21	16	–
Cc1ncc(C(=O)Nc2ccc(Oc3ccnc(-c4ccn5ccnc5c4)c3)cn2)c(=O)n1C [Compound 66]	55	23	54	–
Cc1ncc(C(=O)Nc2ccc(Oc3ccnc(Nc4ccn(C(F)F)n4)c3)cn2)c(=O)n1C [Compound 68]	12	6	7	–
O=C(Nc1ccc(Oc2ccnc(Nc3ccn(C(F)F)n3)c2)cn1)c1cnc2n(c1=O)CCC2 [Compound 69]	4	3	3	–
CC(C)n1cccc(C(=O)Nc2ccc(Oc3ccnc(-c4ccnn4C)c3)cn2)c1=O [Compound 70]	225	203	32	–
CC(C)n1cccc(C(=O)Nc2ccc(Oc3ccnc(-c4ccn(C)n4)c3)cn2)c1=O [Compound 71]	51	36	10	–
Cn1cc(-c2cc(Oc3ccc(NC(=O)c4cc5ccccc5n(C)c4=O)nc3)ccn2)cn1 [Compound 72]	7	16	14	–
CC(C)c1ncc(C(=O)Nc2ccc(Oc3ccnc(-c4cnn(C)c4)c3)cn2)c(=O)n1C [Compound 73]	17	31	11	–
